Results taken from US20210275680A1, “USE OF THE TAS1R3 PROTEIN AS A MARKER FOR THERAPEUTIC, DIAGNOSTIC, AND/OR PROGNOSTIC PURPOSES FOR TUMORS THAT EXPRESS SAID PROTEIN” (FUNDACIÓN INSITITUTO DE INVESTIGACIÓN SANITARIA DE SANTIAGO …, priority 2018, published 2021).

Tests used:
TAS1R3 receptor = assay: RT-PCR of TAS1R3 receptor in SW620 cells kept in contact with lactisole; assay type: cell-based, human; conditions: SW620, low glucose medium, lactisole for 9 days, versus controls (FIG. 8A)
Experimental: Metastatic colon cells from the lymph node (SW620, CCL-227), colorectal adenocarcinoma epithelial cells (SW480, CCL-228), lung carcinoma epithelial cells (A549, CCL-185), and metastatic lung cells from the liver (H1755, CRL-5892), pancreatic carcinoma cells (MIA PaCa-2, CRL-1420), and glioblastoma cells (U118, HTB-15 and U87MG, HTB-14) were used. The SW620, SW480, A549, U118 and U87MG lines were maintained in DMEM HG medium (Dulbecco's Modified Eagle's Medium—High glucose, Sigma-Aldrich), and the H1755 line in RPMI 1640 medium (Gibco®, LifeTecnologies), both supplemented to the 10% with fetal bovine serum (Gibco®, LifeTecnologies) and 1% with antibiotic (penicillin and streptomycin, Sigma-Aldrich). For the quantitative analysis of the expression of TAS1R3, a polymerase chain reaction was carried out with reverse transcriptase (RT-PCR), starting from RNA extracted from all cell lines in culture. […] RNA extraction was carried out using the extraction kit (GeneJET RNA Purification Kit, ThermoScientic), and the analysis was carried out in a manner similar to that described in a previous paragraph. Once the procedure was finished, the data were analyzed.

SW620 cells [1] = assay: Cell proliferation of SW620 cells with free ligand in the medium (cell counting); assay type: cell-based, human
Experimental: FIG. 8. RT-PCR of the receptor when the cells are kept in contact with lactisole for 9 days, comparing it with the controls (SW620 cultured in medium with low glucose concentration) (A). Cell proliferation of SW620 cells cultured in medium with low glucose concentration, and increasing concentrations of lactisole (from 0.44 mg/mL to 7 mg/mL) for 72 h (B). Colony formation of control SW620 cells or in contact with the lactisole ligand, at a concentration of 3.5 mg/mL, after 15 days of culture (C). Beta-galactosidase staining, indicative of cellular senescence, in SW620 cells treated with lactisole (3.5 mg/mL for 72 hours, arrows show cells where staining can be seen) (D). Western blot showing the expression of different proteins involved in tumor progression in SW620 cells when they are exposed to different glucose concentrations (high and low) and lactisole (3.5 mg/ml) for 9 days (E). […] Cell proliferation studies were carried out in SW620 cells, FIG. 7A, cultured in medium with high and low glucose concentration. […] Photos were taken using the microscope (Leica DMIL® microscope) and subsequently they were trypsinized, and the number of cells was counted to make the comparison between these and the starting ones in order to observe the effect of the ligand on the cells. […]

SW620 cells [2] = assay: Colony formation of SW620 cells with free ligand; assay type: cell-based, human; conditions: SW620, low glucose medium, 3.5 mg/mL ligand, 15 days, versus control SW620 (FIG. 8C)
Experimental: Cell proliferation studies were carried out in SW620 cells, FIG. 7A, cultured in medium with high and low glucose concentration. The cells were trypsinized and plated the same number of cells in order to count them at times 0, 24, 72, 96 and 168 hours, using for this the Neubauer chamber, after trypsinization thereof. In an analogous manner, cell proliferation studies were carried out in medium with the presence of free ligand, FIG. 8, which was added to the culture medium at different concentrations. Photos were taken using the microscope (Leica DMIL® microscope) and subsequently they were trypsinized, and the number of cells was counted to make the comparison between these and the starting ones in order to observe the effect of the ligand on the cells. […] However, when studies of colony formation were carried out, starting from an amount of 200 cells per well and waiting for 15 days, it was observed that cells cultured in medium with low concentration of glucose, and that express higher levels of receptor, formed more colonies than those grown in high glucose medium (FIG. 7B). For colony formation studies, 12 well plates were used, plating in different amounts of cells (200, 400,600 and 800 cells per well), in medium with high (4500 mg/L) and low (1000 mg/L) content of glucose. […]

SW620 cells [3] = assay: Beta-galactosidase staining for cellular senescence; assay type: cell-based, human; conditions: SW620, low glucose medium, 3.5 mg/mL, 72 hours (FIG. 8D)
Experimental: To determine whether after cell incubation with the ligand cell senescence is induced, 500,000 cells of the SW620 line were cultured in 6-well plates and medium with low glucose concentration. In several wells, ligand (3.5 mg/mL) was added. After 72 hours, the wells were washed and fixed (2% formaldehyde, 0.2% glutaraldehyde in PBS) for 15 minutes at room temperature. The solution was eliminated giving three washes with 1×PBS, and then the staining solution was applied, calculated for one milliliter of solution: 200 μL citric acid/phosphate buffer, pH 6.0 (dibasic sodium phosphate (Na2HPO4) 0.2 M+0.1 M citric acid), 30 μL 5 M NaCl, 50 μL potassium ferricyanide (K3[Fe(CN)6]) 100 mM, 50 μL potassium ferrocyanide (K4[Fe(CN)6]) 100 mM, 2 μL magnesium chloride (MgCl2) 1 M, 50 μL solution X-gal (20 mg/mL of 5-bromo-4-chloro-3-indolyl β D-galactopyranoside in […]) and 618 μL distilled water. It was incubated in the oven at 37° C. overnight, the wells were washed with distilled water in motion twice, to then apply PBS 1× and observe the possible senescent cells under the Vert microscope. Al, Zeiss®. Blue staining is observed, corresponding to cells in senescence.

p-ERK, p-AKT, IGF-IR = assay: Western blot of proteins involved in tumor progression in SW620 cells; assay type: cell-based, human; conditions: SW620, lactisole 3.5 mg/ml or high glucose (HG), 9 days (FIG. 8E)
Experimental: FIG. 8. RT-PCR of the receptor when the cells are kept in contact with lactisole for 9 days, comparing it with the controls (SW620 cultured in medium with low glucose concentration) (A). Cell proliferation of SW620 cells cultured in medium with low glucose concentration, and increasing concentrations of lactisole (from 0.44 mg/mL to 7 mg/mL) for 72 h (B). Colony formation of control SW620 cells or in contact with the lactisole ligand, at a concentration of 3.5 mg/mL, after 15 days of culture (C). Beta-galactosidase staining, indicative of cellular senescence, in SW620 cells treated with lactisole (3.5 mg/mL for 72 hours, arrows show cells where staining can be seen) (D). […]
For the qualitative study of proteins, Western Blot was performed from proteins isolated from the SW620 cell line, and the results are shown in FIG. 6 (B). […] The total protein of each sample was quantified by the […] (conversion method of bicathionic to monocationic copper in alkaline conditions influenced by specific amino acids such as cysteine, cystine, tryptophan, tyrosine and also by the peptide chain; the amount of bicathionic copper will depend of the amount of these components and will be determined spectrophotopically) using the commercial kit DC-Assay (BIO-RAD®) and establishing a calibration line with bovine serum albumin (BSA, Sigma-Aldrich). […]

[4] = Immunization of mice with TAS1R3 peptide, titration of bleeds; assay type: in vivo; conditions: 4 plus 2 doses of 50 μg of peptide
Experimental: The resulting protein was purified to homogeneity with a final purity of 90-95%, 2 mg conjugated to KLH, 3 mg conjugated to BSA. The design of the genomic construct was carried out based on the literature (Maitrepierre et al., 2012). Likewise, a study of storage buffer formulation was carried out to preserve the integrity of the protein (restricting the use of detergents and polysaccharides in the final formula). The batch obtained was aliquoted in labeled sterile vials and stored at −80° C. until use. After several immunizations of the mice with 4 plus 2 doses of 50 μg of peptide, the bleeds were titrated in order to evaluate the increase of the response against the peptide.

Compound: COc1ccc(OC(C)C(=O)O)cc1 (stereo not shown) [lactisole, Lactisole]
- Expression of the TAS1R3 receptor (RT-PCR) (TAS1R3 receptor): increase in the expression of the receptor
- Cell proliferation (SW620 cells [1]; SW620, low glucose medium, lactisole 0.44 to 7 mg/mL, 72 h, effect at higher concentrations (FIG. 8B)): interferes with cell proliferation
- Colony formation (SW620 cells [2]): no representative colony formed on the plate was observed
- Cellular senescence (beta-galactosidase staining) (SW620 cells [3]): induction of cellular senescence
- Activation of pathways related to tumor progression (western blot) (p-ERK, p-AKT, IGF-IR): activates pathways related to tumor progression, such as p-ERK, p-AKT or IGF-IR

Compound: Acetyl-LSQQLRMKGDYVLGGC-amide (Ac-LSQQLRMKGDYVLGGC-NH2) [TAS1R3 N-terminal extracellular peptide immunogen, conjugated to KLH / BSA]
- Response against the peptide (titration of bleeds) [4]: some response against the peptide, although with very low values

Compound: CFYDEKR [peptide derived from brazzein, brazzein peptide, ligand for TAS1R3]
- Cell proliferation (SW620 cells [1]; SW620, DMEM supplemented with different receptor ligands, extent depends on concentration and molecule (FIG. 8F)): interfere with proliferation
